According to patent US8026275B2 (priority 2005, dated 2011):
Where two headings read alike, the source gives them in different places.

How the values were obtained:
[1] = tested on: GABAA alpha 2 site; conditions: 10^-4M, bovine hippocampus
[2] = dissolved in DMSO
[3] = rat, intravenously via jugular vein cannula, in DMSO, blood
[4] = tested on: GABAA agonist site; conditions: 10^-4M, bovine hippocampus
[5] = tested on: GABAA Cl channel; assay type: binding, bovine; conditions: read-out: IC50 of binding to GABA Cl channel
[6] = tested on: T1, GABAA Cl channel; assay type: binding, bovine; conditions: for Kd: read-out: binding constant (KD), inhibition of TBOB binding to GABAA receptor
T1 construct: other: determined graphically, increasing concentr; other: 10^-4M, bovine hippocampus

[7] = tested on: rats; experiment: Anesthetic activity in vivo, time to recovery of righting reflex; parameters: species or system rat; conditions: for duration of anesthesia (time to recovery of righting reflex): tail vein injection in DMSO, 28 μmol/kg (5 mg/kg for 2,6-diisopropyl phenol); for toxicity compared with 2,6-diisopropyl phenol: equimolar dose
Procedure: Drugs solubilized in DMSO were administered to rats by tail vein injection (N=5 rats per group). […] GABAA binding activity in vitro was performed as described in Example 27.

[8] = in vivo; conditions: rat
Text: Time plasma concentration curve was processed using a two compartment PK model supported by WinNonlin.

[9] = Dose escalation in rats: mortality and anesthetic activity; conditions: rat, in vivo
Procedure: (§1) Drugs solubilized in DMSO were administered to rats (5 rats per group). Anesthetic activity in vivo was determined as time to recovery of righting reflex. […] In order to adjust for the differences in molecular weight between the two compounds, umol/kg dose was used.

[10] = tested on: rats; experiment: as above; conditions: rats; for LD10: in DMSO, calculated from mortality curves
Procedure: as §1

[11] = tested on: GABAA alpha-6 site; conditions: 10^-4M, bovine hippocampus
[12] = tested on: GABAA alpha-1 site; conditions: 10^-4M, bovine hippocampus
[13] = in vivo; conditions: rat, plasma, intravenous, 5 mg/kg
[14] = Total Antioxidant Status Assay (CalBiochem), inhibition of ABTS oxidation; assay type: biochemical; conditions: read-out: Antioxidant activity (IC50, 50% suppression of ABTS+ absorbance at 600 nm)
Text: The assay used relies on the ability of antioxidants in the sample to inhibit the oxidation of ABTS (2,2'-Azino-di-[3-ethylbenzthiazoline sulphonate]) to ABTS+ by metmyoglobin (a peroxidase). The amount of ABTS+ produced was monitored at 600 nm. Under the reaction conditions used, the antioxidants in the sample suppress the absorbance at 600 nm to a degree which is proportional to their concentration and antioxidant activity.

[15] = 5 mg/kg intravenously in DMSO, plasma
[16] = determined graphically, increasing concentrations

With `CC(C)c1cccc(C(C)C)c1O` [2,6-diisopropyl phenol] the “inhibition of the alpha 2 site” value [1] was “No significant inhibition”, the “time the rat was put to sleep” value [2] was 20 min and the AUC [3] was 400 ng·h/mL. For the same compound, the CL [3] was 195 mL/min/kg, the Cmax [3] was 300 ng/mL and the “Vc (volume of the central compartment)” value [3] was 15.0 L/kg. For the same compound, the “Vt (volume of the tissue compartment)” value [3] was 58.0 L/kg, the “inhibition of the agonist site” value [4] was “No significant inhibition” and the IC50 [5] was 96 µM. For the same compound, the “inhibition of TBOB binding to the chloride channel” value [6] was “inhibited the binding of TBOB”, the Kd [6] was 5.74 µM and the “duration of anesthesia (time to recovery of righting reflex)” value (“duration of anesthesia” for short) [7] was 20 min. It also gave a V1 [8, 15] of 15 L/kg, a V2 [8, 15] of 58 L/kg and an AUC ([8]; in vivo, iv, 5 mg/kg) of 400 ng·h/mL. It also gave a Cmax ([8]; in vivo, iv, 5 mg/kg) of 300 ng/mL, a Vd ([8]; in vivo, iv, 5 mg/kg) of 73 L/kg and a clearance ([8]; in vivo, iv, 5 mg/kg) of 200 mL/min/kg. For the same compound, the LD50 [9] was 45.3 µmol/kg, the “time asleep at LD10” value [10] was 0.35 h and the LD10 [10] was 28 µmol/kg. For the same compound, the “inhibition of the alpha 6 site” value [11] was “No significant inhibition”, the “inhibition of the alpha 1 site” value [12] was “No significant inhibition” and the concentration at 20 min [13] was 750 nM.
For `CC(C)c1cc(C(=O)c2ccc(F)cc2)cc(C(C)C)c1O` [Compound 1, (4-fluorophenyl)-(4-hydroxy-3,5-diisopropylphenyl)methanone], the IC50 [14] was > 1000 µM.
With `CC(C)c1cc(C(=O)c2ccc(C(F)(F)F)cc2)cc(C(C)C)c1O` [Compound 2] the AUC [3] was 127000 ng·h/mL, the CL [3] was 1.3 mL/min/kg and the Cmax [3] was 283000 ng/mL. The “Vc (volume of the central compartment)” value [3] was 0.04 L/kg, the “Vss (volume distribution at steady state)” value [3] was 5.3 L/kg and the “Vt (volume of the tissue compartment)” value [3] was 5.2 L/kg. For the same compound, the Kd [6, 16] was 0.42 µM, the “toxicity compared with 2,6-diisopropyl phenol” value [7] was “did not have toxicity above that of 2,6-diisopropyl phenol” and the “duration of anesthesia” value [7] was 75 to 92 min. The LD50 [9] was 62.1 µmol/kg, the “time asleep at LD10” value [10] was 1.73 h and the “anesthetic activity compared with 2,6-diisopropyl phenol” value ([10]; dose escalation) was “better anesthetic activity than 2,6-diisopropyl phenol at all dose levels”. The LD10 [10] was 29 µmol/kg and the IC50 [14] was > 1000 µM.
For `CC(C)c1cc(C(=O)c2ccc([N+](=O)[O-])cc2)cc(C(C)C)c1O` [Compound 3, (4-hydroxy-3,5-diisopropylphenyl)-(4-nitrophenyl)methanone], the IC50 [14] was > 1000 µM.
With `CC(C)c1cc(C(=O)c2ccc(C(F)(F)F)c(F)c2)cc(C(C)C)c1O` [Compound 4, (3-fluoro-4-(trifluoromethyl)phenyl)-(4-hydroxy-3,5-diisopropylphenyl)methanone] the IC50 [14] was > 1000 µM.
With `CC(C)c1cc(C(=O)c2cccc(C(F)(F)F)c2)cc(C(C)C)c1O` [Compound 5, (3-(trifluoromethyl)phenyl)-(4-hydroxy-3,5-diisopropylphenyl)methanone] the IC50 [14] was > 1000 µM.
For `CC(C)c1cc(C(=O)c2cc(F)cc(C(F)(F)F)c2)cc(C(C)C)c1O` [Compound 6, (3-fluoro-5-(trifluoromethyl)phenyl)-(4-hydroxy-3,5-diisopropylphenyl)methanone], the IC50 [14] was > 1000 µM.
In the case of `CC(C)c1cc(C(=O)c2ccc(C(C)(C)C)cc2)cc(C(C)C)c1O` [Compound 9, (4-tert-butylphenyl)-(4-hydroxy-3,5-diisopropylphenyl)methanone], the IC50 [14] is reported as > 1000 µM.
For `CC(C)c1cc(C(=O)c2ccc(I)cc2)cc(C(C)C)c1O` [Compound 11, (4-hydroxy-3,5-diisopropylphenyl)-(4-iodophenyl)methanone], the Kd [6, 16] was 0.36 µM, the “toxicity compared with 2,6-diisopropyl phenol” value [7] was “did not have toxicity above that of 2,6-diisopropyl phenol” and the “duration of anesthesia” value [7] was 86 min. The IC50 [14] was > 1000 µM.
With `CC(C)c1cc(C(=O)c2ccc(C#N)cc2)cc(C(C)C)c1O` [Compound 13, (4-cyanophenyl)-(4-hydroxy-3,5-diisopropylphenyl)methanone] the IC50 [14] was > 1000 µM.
In the case of `CC(C)c1cc(C(=O)c2ccc(C(F)(F)F)nc2)cc(C(C)C)c1O` [Compound 14, (6-(trifluoromethyl)pyridin-3-yl)-(4-hydroxy-3,5-diisopropylphenyl)methanone], the IC50 [14] is reported as > 1000 µM.
Work on `CC(C)c1cc(C(O)c2ccc(C(F)(F)F)cc2)cc(C(C)C)c1O` (stereo not drawn) [Compound 20, 4-((4-(trifluoromethyl)phenyl)(hydroxy)methyl)-2,6-diisopropylphenol] yielded an IC50 [14] of 28 µM.
